Read-outs that look alike come from different tables or passages of the source.
Legend:
[1] = system: A673 (human Ewing Sarcoma cell line); experiment: cells; details: for IC50: Homo sapiens, read-out: In vitro Activity (IC50) A673
Description: (§1) The experiments were conducted in the absence of cytochrome.
(§2) The cells were seeded in 96-well plates at optimal cell density determined previously and incubated with 100 μL of DMEM or RPMI containing 10% of FBS and 100 U/mL penicillin and 100 μg/mL streptomycin at 37° C., 5% CO2 in moist atmosphere. After 24 h, the cells were treated with 100 μL of the different pre-activated prodrugs at different concentrations:
(§3) Depending on the cell line, 2 to 5 h incubation are needed to obtain the optimum optical density which was measured at 490 nm wavelength using a microplate reader (EL808, Biotek Instrument). Untreated cells were used as control. Each compound concentration was tested in six replicates.

RMS-1 cell line [2] = experiment: cells; details: for IC50: read-out: In vitro Activity (IC50) RMS-1
Description: as §1, §2, §3

[3] = Physico-chemical characterisation of nano-assemblies (DLS, Zeta potential, drug loading); type: physicochemical; details: nanoprecipitation acetone/water, no surfactant
Description: Nano-assemblies (NAs) from prodrugs Geranyloxy-IFO (3b) at a concentration of 2 mg/mL and 5 mg/ml, were prepared in a single step by nanoprecipitation of solution (8 mg/mL in acetone) in milliQ® water (ratio acetone:water 1:4; v:v). Formation of NAs occurred immediately without the use of any surfactant. The organic solvent was then evaporated at room temperature under vacuum using a Rotavapor® and the organic solvent-free colloidal dispersions were stored at 4° C.
The hydrodynamic diameter of the NAs was measured at 20° C. by Dynamic Light scattering using a Nanosizer ZS (Malvern Instrument Ltd, France). An amount of 20 μL of the suspension was diluted in 980 μL of Milli-Q water. The results give the mean hydrodynamic diameter of the dispersed NAs from three independent series of ten measurements. The standard deviation and the polydispersity index were also given.
The Zeta (ξ) potential was also determined by dilution of 20 μL of the suspension in 980 μL of a […] solution using a Nanosizer ZS (Malvern Instrument Ltd, France).

[4] = system: human rhabdomyosarcoma (RD cell line) xenografted in nude mice; experiment: Anti-tumor effect in vivo, RD xenograft; details: intravenous
Description: In vivo cytotoxic efficacy was evaluated first on a model of human rhabdomyosarcoma xenografted in nude mice. The model used is RD cell line. The cells were first amplified in culture and counted. Cells were injected subcutaneously in both flanks of each mouse.
The administration was performed by intravenous route at day 0.

[5] = In vitro release of 4-HO-IFO in mouse plasma; type: in vitro ADME; details: 37° C., without activation by cytochromes
[6] = squalenoyl IFO derivatives described in WO2012/076824; cited from earlier work
[7] = system: A673 (human Ewing Sarcoma cell line); details: comparison values for squalenoyl derivatives (WO2012/076824); cited from earlier work
RMS-1 cell line [8] = details: comparison values for squalenoyl derivatives (WO2012/076824); cited from earlier work
[9] = A673, 72 h, absence of cytochrome
[10] = RMS-1, 72 h, absence of cytochrome

Q: With `CC(C)CCCC(C)CCO` (stereo not drawn) [3,7-dimethyloctanol] as the molecule, how does the “cytotoxicity, in words” value [1] read?
A: The value was “The same results were observed”.

Q: And the IC50 ([1]; A673, 72 h)?
A: The IC50 was over 200 µM.

Q: And the “cytotoxicity, in words” value (RMS-1 cell line [2])?
A: Its value is “The same results were observed”.

Q: What about the IC50 (RMS-1 cell line [2]; RMS1, 72 h) of the same molecule?
A: Its IC50 is over 50 µM.

Q: For `CC(C)CCCC(C)CCOC1CCOP(=O)(NCCCl)N1CCCl` (stereo not drawn) [13,17-Dimethyloctyloxy-IFO (3c), 13,17-Dimethyloctyloxy-IFO], which “formation of nanoparticles (self-assembly)” value [3] is on record?
A: Its value is “did not provide any suspension of nanoparticles”.

Q: What about the “cytotoxicity, in words” value [1, 9] of the same molecule?
A: Its value is “did not exhibit significant cytotoxicity”.

Q: What about the IC50 ([1]; A673, 72 h) of the same molecule?
A: The IC50 was over 200 µM.

Q: What about the IC50 ([1]; A673, 96 h) of the same molecule?
A: The IC50 was 24.5 ± 2.1 µM.

Q: What about the IC50 (RMS-1 cell line [2]; RMS1, 72 h) of the same molecule?
A: Its IC50 is over 50 µM.

Q: What about the IC50 (RMS-1 cell line [2]; RMS1, 96 h) of the same molecule?
A: The IC50 was 11.3 ± 5.8 µM.

Q: And the “cytotoxicity, in words” value (RMS-1 cell line [2]; [10])?
A: Its value is “did not exhibit significant cytotoxicity”.

Q: With `CC(C)=CCC/C(C)=C/CO` [Geraniol, (trans)-3,7-dimethyl-2,6-octadien-1-ol] as the molecule, how does the “cytotoxicity, in words” value [1] read?
A: Its value is “The same results were observed”.

Q: What about the IC50 ([1]; A673, 72 h) of the same molecule?
A: Its IC50 is over 200 µM.

Q: And the “cytotoxicity, in words” value (RMS-1 cell line [2])?
A: Its value is “The same results were observed”.

Q: What about the IC50 (RMS-1 cell line [2]; RMS1, 72 h) of the same molecule?
A: Its IC50 is over 50 µM.

Q: What about the “tumor volume growth (Vtjx/Vtj0)” value ([4]; single dose 59 mg/kg, day 0) of the same molecule?
A: Its value is “No tumor growth inhibition”.

Q: Which results are given for `CC(C)=CCC/C(C)=C/COC1CCOP(=O)(NCCCl)N1CCCl` (stereo not drawn) [Geranyloxy-IFO (bulk) (3b), Geranyloxy-IFO]?
A: formation of nanoparticles (self-assembly) ([3]; listed as Geranyloxy-IFO): gave satisfactory NAs; formation of nanoparticles (self-assembly) ([3]; listed as geranyloxy-IFO): able to self-organize into nanoparticles; release of 4-HO-IFO, in words [5]: released; cytotoxicity, in words [1, 9]: significant cytotoxicity; IC50 ([1]; A673, 72 h): 25.3 ± 1.5 µM; IC50 (RMS-1 cell line [2]; RMS1, 72 h): 9.3 ± 4.2 µM; cytotoxicity, in words (RMS-1 cell line [2]; [10]): significant cytotoxicity; tumor volume growth (Vtjx/Vtj0) ([4]; single dose 158 mg/kg (equivalent to 100 mg/kg of IFO), day 0, free form, listed as Geranyloxy-IFO): showed antitumor activity; tumor volume growth (Vtjx/Vtj0) ([4]; single dose 158 mg/kg (equivalent to 100 mg/kg of IFO), day 0, free form, listed as geranyloxy-IFO): prevent the tumor growth

Q: Which “cytotoxicity, in words” value [1] does the source give for `O=P1(NCCCl)OCCCN1CCCl` (stereo not drawn) [IFO, ifosfamide] here?
A: The value was “did not exhibit significant cytotoxicity”.

Q: And the IC50 ([1]; A673, 72 h)?
A: The IC50 was over 200 µM.

Q: What about the “cytotoxicity, in words” value (RMS-1 cell line [2]) of the same molecule?
A: Its value is “did not exhibit significant cytotoxicity”.

Q: What about the IC50 (RMS-1 cell line [2]; RMS1, 72 h) of the same molecule?
A: Its IC50 is over 50 µM.

Q: What about the “tumor volume growth (Vtjx/Vtj0)” value ([4]; single dose 300 mg/kg, day 0) of the same molecule?
A: The value was “antitumor activity”.

Q: Which “cytotoxicity, in words” value [1] does the source give for `CCCCCO` [Pentanol, pentanol] here?
A: The value was “The same results were observed”.

Q: What about the IC50 ([1]; A673, 72 h) of the same molecule?
A: Its IC50 is over 200 µM.

Q: What about the “cytotoxicity, in words” value (RMS-1 cell line [2]) of the same molecule?
A: Its value is “The same results were observed”.

Q: What about the IC50 (RMS-1 cell line [2]; RMS1, 72 h) of the same molecule?
A: Its IC50 is over 500 µM.

Q: Which “formation of nanoparticles (self-assembly)” value [3] does the source give for `CCCCCOC1CCOP(=O)(NCCCl)N1CCCl` (stereo not drawn) [Pentyloxy-IFO (3a), Pentyloxy-IFO] here?
A: Its value is “did not provide any suspension of nanoparticles”.

Q: And the IC50 ([1]; A673, 72 h)?
A: The IC50 was 17.7 ± 2.3 µM.

Q: And the IC50 (RMS-1 cell line [2]; RMS1, 72 h)?
A: The IC50 was 5.3 ± 1.7 µM.

Q: For `CC(C)=CCC/C(C)=C/CC/C(C)=C/CC/C=C(\C)CC/C=C(\C)CCCOC1CCOP(=O)(NCCCl)N1CCCl` (stereo not drawn) [SQ-IFO], which drug loading [6] is on record?
A: The drug loading was 40.4%.

Q: And the mean diameter [6]?
A: Its mean diameter is 147 nm.

Q: What about the IC50 [7] of the same molecule?
A: The IC50 was 22 ± 5 µM.

Q: And the IC50 (RMS-1 cell line [8])?
A: Its IC50 is 11.4 ± 5 µM.

Q: With `CC(C)=CCC/C(C)=C/CC/C(C)=C/CC/C=C(\C)CC/C=C(\C)CCC(=O)NCCSC1CCOP(=O)(NCCCl)N1CCCl` (stereo not drawn) [SQ-thio-IFO] as the molecule, how does the drug loading [6] read?
A: Its drug loading is 36.3%.

Q: What about the mean diameter [6] of the same molecule?
A: Its mean diameter is 170 nm.

Q: And the IC50 [7]?
A: Its IC50 is 23.2 ± 1.3 µM.

Q: What about the IC50 (RMS-1 cell line [8]) of the same molecule?
A: Its IC50 is 33 ± 1.8 µM.

Reference: US10098901B2, “Derivatives of oxazaphosphorines and therapeutic uses thereof” (INSTITUT GUSTAVE ROUSSY, priority 2014, dated 2018)
